Results reported in a melting point compilation (Tetko et al.; mined from patent text by program, amines drawn as free bases though some values may be those of a salt).

Row | Compound | melting point [°C]
1 | COC(=O)c1cc(Br)c(Br)o1 | 56 to 57
2 | CN(CC(=O)O)S(=O)(=O)c1ccc(Cl)cc1 | 180 to 182
3 | O=P1(O)Oc2c(-c3ccc(Cl)cc3)cc(Cl)cc2-c2ccc(Cl)cc21 | 260
4 | Cc1c(N2CCC3(CC3N)C2)c(F)c(N)c2c(=O)c(C(=O)O)cn([C@@H]3C[C@@H]3F)c12 (stereo partly drawn) | 118 to 120
5 | COc1cccc(Oc2cccc(-c3ccccc3)c2)c1 | 41 to 42
6 | COc1ccccc1N1CCN(CC(C(=O)NC(C)(C)C)c2ccccn2)CC1 (stereo not drawn) | 138 to 139
7 | O=C(c1cccnc1)N1CCC(c2ccc(Cl)cc2)=N1 | 125 to 126
8 | CC(C)(C)CC(=O)c1ccc(OCC(=O)O)c(Cl)c1Cl | 145 to 146
9 | CCN(C)c1ccc2c(c1)CN(c1cccc(Br)c1COC(C)=O)C2=O | 97 to 99
10 | CCCC#Cc1ccnc2[nH]cc(-c3ccnc(N)n3)c12 | > 210
11 | N#Cc1ccc(C2C(=O)N(CC3CC3)Cc3cncn32)cc1 (stereo not drawn) | 146 to 147
12 | O=C(O)Cc1c(C(=O)c2cccc(Br)c2)[nH]c2cc(Cl)ccc12 | 215 to 218
13 | CC12CCC(C1)C1(C)Oc3ccc(C(O)c4ccc(CO)cc4)cc3C21C (stereo not drawn) | 113 to 115
14 | CC(C)(C)OC(=O)NCCCCC(NC(=O)OCc1ccccc1)C(N)=O (stereo not drawn) | 140 to 142
15 | CCCCC1=C(C#N)N(O)CS1 | 118 to 120
16 | Cc1cc(O)c2c(c1)C(C)(C)CCC2(C)C | 133 to 134
17 | COc1ccc(C(=O)Nc2c(C)c(C)c3c(c2C)C(c2ccc(C(C)C)cc2)C(C)(C)O3)cc1OC (stereo not drawn) | 171 to 173
18 | COc1ccc(C[C@@H](NC(=O)OCc2ccccc2)[C@H](O)C(=O)O)cc1 | 160 to 162
19 | Cc1nn(C)cc1C(=O)Nc1ccccc1 | 91 to 92
20 | O=c1cc(-c2cccc(Cl)c2)c2cc(C(c3ccc(Cl)cc3)n3ccnc3)cc3c2n1CCC3 (stereo not drawn) | 195
21 | CC(C)OC(=O)c1cc(-n2c(=O)[nH]c3c(c2=O)CCC3)c(Cl)cc1Cl | 186 to 189
22 | COC(=O)NNC(=S)Cc1cccs1 | 74 to 75
23 | CC(=O)Nc1ccc(C(=O)c2cc(-c3cccnc3)c(N3CCOCC3)s2)cc1 | 120
24 | COCCCOc1cc(C[C@@H](C(=O)N2C(=O)OC[C@H]2Cc2ccccc2)C(C)C)ccc1OC | 55 to 56
25 | CC12CCC(=O)C=C1CCC1C2CCC2(C)C1CCC2(O)C(N)=O (stereo not drawn) | 233 to 234

Row | Compound | melting point [°C]
26 | N#Cc1c(-c2ccccc2)c(-c2ccccc2)nn(CCO)c1=O | 197 to 198
27 | CCc1cn(C2CC(O)(c3ccc(C)cc3)C(C(O)c3ccc(C)cc3)O2)c(=O)[nH]c1=O (stereo not drawn) | 192 to 194
28 | CC(=O)C1=C(O)CC(C)OC1=O (stereo not drawn) | 96 to 98
29 | CC(C)(C)OC(=O)N[C@H](C(=O)N1CCC[C@H]1C(=O)NC1CCc2nc(N)sc2C1)C(c1ccccc1)c1ccccc1 (stereo partly drawn) | 127 to 130
30 | COc1cc(NC(=O)OCC2c3ccccc3-c3ccccc32)ccc1C=O | 187 to 188
31 | CCS(=O)c1ccc(N2CC(CNC(C)=S)OC2=O)cc1F (stereo not drawn) | 138 to 139
32 | COc1cc(-n2c(=O)cc(C(F)(F)F)[nH]c2=O)ccc1C#N | > 230
33 | CN1CC(CCCl)Oc2ccc([N+](=O)[O-])cc2C1=S (stereo not drawn) | 153 to 155
34 | CCCCc1c2c(nc3cc(F)cc(F)c13)-c1cc3c(c(=O)n1C2)COC(=O)CC3(O)CC (stereo not drawn) | 190
35 | CCN(CC)Cc1ccc(-c2cccc(-c3ccnc4c(C(=O)c5cccs5)cnn34)c2)cc1 | 144 to 146
36 | COC1c2ccccc2C(c2ccc([N+](=O)[O-])cc2)=NN(c2nc(=O)n(C)s2)C1(C)OC (stereo not drawn) | 262 to 263
37 | Clc1cc(N2CCNCC2)ccn1 | 119 to 120
38 | CCOC(=S)c1c(CC)nc2ccccn12 | 71 to 73
39 | c1cn(-c2ccc3nc(-c4ccc5c(c4)OCCO5)ncc3c2)cn1 | 132
40 | COc1ccc(C(N)=Nc2ccc(C(=O)O)cc2)cc1C(C)(C)C | 170 to 172
41 | CCOC(=O)c1nnc2ccc(NC(=O)NC(Cc3ccccc3)C(=O)OC)cc2c1O (stereo not drawn) | 242 to 243
42 | OCc1cc2ccc3c4ccccc4ccc3c2o1 | 125 to 126
43 | O=C1CC(c2cccc(-n3ccnc3)c2)=Nc2cc(Cl)c(-c3ccc(F)cc3)cc2N1 | 209 to 211
44 | O=C(O)c1cccc(-c2ccn(-c3ccc(OC(F)F)cc3)n2)c1 | 182 to 183
45 | CCCCCCOc1ccc(-c2ncc(-c3ccc(OCc4ccccc4)c(F)c3F)cn2)cn1 | 115
46 | Cc1ccc(-c2ccc3c(c2)C=C(CNc2ccc(CN(C)C4CCOCC4)cc2)CCO3)cc1 | 158 to 160
47 | CCCCN(CCCC)Cc1cc(NC(=O)Nc2c(C(C)C)cccc2C(C)C)n(Cc2ccccc2)n1 | 149 to 152
48 | COc1ccc(C2(C#Cc3cccc(-c4nnc(C)o4)c3)CCC(=O)CC2)cc1OC1CCCC1 | 139 to 141
49 | O=S1(=O)C[C@H](O)[C@H](O)CS1 | 131 to 132
50 | Cn1cc(-c2ccc3ncn(Cc4ccc5ncccc5c4)c3n2)cn1 | 150 to 152

Row | Compound | melting point [°C]
51 | CCCCCCCCCCCCCCCCC(C(=O)OC)S(C)=O (stereo not drawn) | 56 to 57
52 | COC(=O)CCC(=O)c1ccc(-c2ccc(SC)cc2)cc1 | 137 to 140
53 | CC(=O)CC(=O)NCC1(C)CC(NC(=O)CC(C)=O)CC(C)(C)C1 (stereo not drawn) | 144 to 147
54 | Cc1cc(Nc2ccnc(Nc3ccc(S(=O)(=O)N(C)C4CCN(Cc5cccn5C)CC4)cc3)n2)ccc1F | 159 to 160
55 | COCCC(=O)OC1(C(=O)COC(C)=O)CCC2C3CC(C)C4=CC(=O)C=CC4(C)C3C(O)CC21C (stereo not drawn) | 162
56 | C/C(=C\c1ccc(P(=O)(O)O)cc1)c1ccc2c(c1)C(C)(C)CCC2(C)C | 208 to 209
57 | CC(C)CCn1c(CN2C(=O)N(C3CC3)Cc3ccccc32)nc2cc(CN)ccc21 | 113
58 | N=C(Nc1cccc([N+](=O)[O-])c1)N1CCCC1 | 117 to 118
59 | COc1ccc(C(=O)n2c3c(c4cc(C)ccc42)CC(C(=O)O)CC3)cc1 (stereo not drawn) | 172 to 173
60 | O=C(Cc1cnoc1-c1ccccc1)Nc1nc(-c2ccc(Cl)cc2)cs1 | 210 to 211
61 | COc1ccc(S(=O)(=O)Nc2cccc3c2Nc2ccc(F)c(O)c2CO3)cc1 | 219 to 232
62 | CNS(=O)(=O)c1c(C)n(C)c2cc(F)ccc2c1=O | 184
63 | NC(=O)c1nnn(C2OC(CO)C(O)C2O)c1N (stereo not drawn) | 159 to 161
64 | CC(C)(C)OC(=O)N1CCC=C(Cc2cn(S(=O)(=O)c3ccccc3)c3ccc(F)cc23)C1 | 63 to 65
65 | CC(=O)Nc1c(C(=O)c2cccc(C(N)=O)c2)[nH]c2cc(Cl)ccc12 | 243 to 247
66 | CCCCCCc1ccc2c(c1)c1cc(CCCCCC)ccc1n2CCN | 56
67 | CC#CCOc1cc(Oc2ccc(F)cc2)ncn1 | 116
68 | N#Cc1ccc(NC(=O)CCC2CCCC(=O)O2)cc1 (stereo not drawn) | 145 to 148
69 | Cc1ccc(Cn2ccc3cc(Br)ccc32)cc1 | 56 to 57
70 | IC#CCOCc1cccnc1 | 109 to 110
71 | CCOC(=O)C(Cc1ccc(Cl)cc1SCc1ccc(OC)cc1)(CC(C)C)C(=O)OCC | 95 to 97
72 | COc1ccc(C2=NN(C3CCN(S(=O)(=O)c4ccc(C)cc4)CC3)C(=O)C(C)(C)C2)cc1OC | 161 to 164
73 | Nc1ncc(Sc2ccc(C(F)(F)F)cn2)s1 | 135 to 138
74 | Cc1ccc(O)c(C)c1N(C)C | 162 to 165
75 | COc1ccc2c(c1)C(CC#N)C(=O)CC2 (stereo not drawn) | 97 to 99

Row | Compound | melting point [°C]
76 | CC(C)(C)c1ccc([C@@H]2C[C@H]3C=C(c4c[nH]c(-c5ccc(F)cc5)c4-c4ccncc4)CCN3C2)cc1 | 226 to 228
77 | CC(=O)[C@H]1C[C@H](C(=O)OC(C)(C)C)N(C(=O)CNC(=O)Nc2cccc(C(=O)O)c2)[C@@H]1c1ccccc1 (racemic) | 145
78 | CSc1nc(-c2ccccn2)n(-c2ccc(F)cc2)c(=O)c1C#N | 221 to 227
79 | CN1C(c2ccccc2)CC(=O)CC1c1ccccc1 (stereo not drawn) | 147 to 149
80 | CNC(=O)c1ccc(-c2coc3ccc(-c4nnc(C)o4)cc23)cc1F | 183 to 184
81 | COc1cc(C)nc(NC(=O)NS(=O)(=O)c2ccsc2C2=CCCCC2)n1 | 190 to 192
82 | NC(=O)c1ccc(CCC[N@]2C[C@@H]2c2ccccc2)s1 | 117 to 119
83 | CCSc1ccc2c(c1)C(=O)Cc1ccccc1N2C | 54 to 55
84 | O=C(N[C@H](Cc1cccc(OCC(F)(F)C(F)F)c1)[C@@H](O)c1ccc(F)cc1)c1ccc(F)c2ccccc12 (racemic) | 160 to 161
85 | Cc1cccc(Cl)c1NC(=O)NCc1ccc2c(c1)CN(C1CCC(=O)NC1=O)C2=O (stereo not drawn) | 243 to 245
86 | CCOCN1C2=C(C(=O)CCC2)C(c2cccc([N+](=O)[O-])c2)C2=C1CCCC2=O | 222
87 | Cc1ccc(S(=O)(=O)OC2COc3ccc4ncccc4c3C2)cc1 (stereo not drawn) | 168 to 170
88 | CC=C(c1ccccc1)c1c(C)nn(C)c1NC(=O)Nc1ccccc1 | 173 to 195
89 | CCCCc1nc(Cl)c(C(=O)O)n1Cc1ccc2oc(-c3ccccc3C(=O)OCC)c(Br)c2c1 | 148 to 150
90 | COCCOc1cc2ncc(C#N)c(Nc3cc(OC)c(OC)c(OC)c3)c2cc1OC | 188 to 190
91 | O=C(Oc1ccccc1)Oc1ccccc1C(=O)NC(Oc1ccccc1)C(Cl)(Cl)Cl (stereo not drawn) | 110 to 111
92 | O=C(O)C=Cc1c(-c2ccccc2)nn2ccccc12 | 153 to 155
93 | Cc1cc(OCCC[Si](C)(C)C)c(Cl)cc1N(C#N)C=N | 143 to 144
94 | CC(C)N(C[C@H](O)[C@H](Cc1ccccc1)NC(=O)[C@H](CC(N)=O)NCc1ccccn1)NC(=O)OC(C)(C)C | 101 to 108
95 | O=C(CCc1nnc(Nc2ccccc2Cl)o1)NC1CCN(Cc2ccc(F)c(F)c2)CC1 | 162 to 163
96 | CC(=O)c1c(-c2ccc(Cl)cc2)c(-c2ccc(Cl)cc2)nn(CCO)c1=O | 191 to 193
97 | Cc1c(C(=O)NC2(C(=O)O)Cc3cccc(Br)c3C2)oc2cc(-c3ccc(Cl)cc3)ccc12 (stereo not drawn) | 230
98 | CCc1ccccc1N1CCN(C(=O)Nc2nc3ccccc3nc2OC)CC1 | 191 to 193
